Experimental data taken from US20260176282A1, “BICYCLIC COMPOUNDS AS CDK INHIBITORS” (BEONE MEDICINES I GMBH, priority 2023, published 2026).
Read-outs that look alike come from different tables or passages of the source.

Columns and labels:
[1] = target: T1, CDK1/Cyclin B1 (Homo sapiens, UniProt P06493); assay: CDK1/Cyclin B1 TR-FRET biochemical assay (0.015 mM ATP); settings: 120 minutes reaction
Method: (§1) Compounds disclosed herein were tested for inhibition of CDK2/Cyclin E1 or CDK1/Cyclin B1 kinase in an assay based on the time-resolved fluorescence-resonance energy transfer (TR-FRET) methodology. The assay was carried out in 384-well low volume black plates in a reaction mixture containing CDK2/Cyclin E1 or CDK1/Cyclin B1, 0.060 mM ATP for CDK2/Cyclin E1 or 0.015 mM ATP for CDK1/Cyclin B1, 0.15 μM Rb (Ser780)-biotin substrate and 0-10 μM compound in buffer containing 50 mM HEPES pH7.0, 0.02% NaN3, 0.01% BSA, 0.1 mM Orthovanadate, 50 mM MgCl2, 1 mM DTT and 0.005% Tween-20. The kinase was incubated with compound for 60 minutes at room temperature and the reaction was initiated by the addition of ATP and Rb (Ser780)-biotin substrate. After reaction at room temperature for 120 minutes, an equal volume of stop/detection solution was added according to the manufacture's instruction (Cisbio Bioassays). The stop/detection solution contained Streptavidin-XL665 and Anti-pRb (Ser780) mAb-Eu Cryptate in Detection buffer (Cisbio Bioassays). Plates were incubated at room temperature for 60 minutes, and the TR-FRET signals (ex337 nm, em665 nm/620 nm) were recorded on a PHERAstar FSX plate reader (BMG Labtech). The inhibition percentage of CDK2/Cyclin E1 or CDK1/Cyclin B1 kinase activity in presence of increasing concentrations of compounds was calculated based on the ratio of fluorescence at 665 nm to that at 620 nm. The IC50 for each compound was derived from fitting the data to the four-parameter logistic equation by Dotmatics.

[2] = tested on: HEK-293 cells; assay: HEK-293 cell cytotoxicity detection (CellTiter-Glo); format: cell-based; settings: incubation of 72 h, CellTiter-Glo luminescence
Method: HEK-293 cells were treated with compounds diluted in 0.4% DMSO, dilution was done according to the following protocol: (1) making 250× stock solution in DMSO from 10 mM by 4-fold dilution, total 8 doses were included; (2) making 2 solution in cell culture medium by transferring 1 μl 250× stock solution into 124 μl medium; (3) adding 50 μl of 2× solution to cells for incubation of 72 h.
25 μl of the CellTiter-Glo® Reagent [(PromegaCat #G9242)] was added to each well in the 96-well plate. The contents were mixed for 2 minutes on an orbital shaker to induce cell lysis. The plate was then allowed to incubate at room temperature for 10 minutes to stabilize luminescent signal. Luminescence was recorded on BMG PheraStar with luminescence protocol.
The IC50 value of a compound can be obtained by fitting the following equation: […]
Wherein, X and Y are known values, and IC50, Hillslope, Top and Bottom are the parameters obtained by fitting with software. Y is the inhibition percentage (calculated from the equation), X is the concentration of the compound; IC50 is the concentration of the compound when the 50% inhibition is reached. The smaller the IC50 value is, the stronger the inhibitory ability of the compound is. Vice versa, the higher the IC50 value is, the weaker the ability the inhibitory ability of the compound is; Hillslope represents the slope of the fitted curve, generally around 1*; Bottom represents the minimum value of the curve obtained by data fitting, which is generally 0%±20%; Top represents the maximum value of the curve obtained by data fitting, which is generally 100%±20%. The experimental data were fitted by calculating and analyzing with Dotmatics data analysis software.

[3] = target: T2, CDK2/Cyclin E1 (Homo sapiens, UniProt P24941); assay: CDK2/Cyclin E1 TR-FRET biochemical assay (0.060 mM ATP); settings: 120 minutes reaction
Method: as §1

[4] = target: T2, CDK2/Cyclin E1; assay: CDK2/Cyclin E1 TR-FRET biochemical assay (1 mM ATP); settings: 90 minutes reaction
Method: as §1, with “1” for “0.060”, “and” for “or 0.015 mM ATP for”, “90” for “120”

[5] = target: T1, CDK1/Cyclin B1; assay: CDK1/Cyclin B1 TR-FRET biochemical assay (1 mM ATP); settings: 90 minutes reaction
Method: as §1, with “1” for “0.060”, “and” for “or 0.015 mM ATP for”, “90” for “120”

T1 sequence (P06493 whole entry): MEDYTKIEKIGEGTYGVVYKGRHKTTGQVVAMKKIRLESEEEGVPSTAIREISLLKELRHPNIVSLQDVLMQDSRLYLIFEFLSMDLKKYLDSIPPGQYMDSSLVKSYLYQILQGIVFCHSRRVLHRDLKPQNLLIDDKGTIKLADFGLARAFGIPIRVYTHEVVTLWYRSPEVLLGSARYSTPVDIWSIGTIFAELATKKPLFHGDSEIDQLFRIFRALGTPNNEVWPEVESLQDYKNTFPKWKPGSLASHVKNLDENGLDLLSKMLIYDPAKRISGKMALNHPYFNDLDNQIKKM
T1 sequence (P14635 whole entry partner): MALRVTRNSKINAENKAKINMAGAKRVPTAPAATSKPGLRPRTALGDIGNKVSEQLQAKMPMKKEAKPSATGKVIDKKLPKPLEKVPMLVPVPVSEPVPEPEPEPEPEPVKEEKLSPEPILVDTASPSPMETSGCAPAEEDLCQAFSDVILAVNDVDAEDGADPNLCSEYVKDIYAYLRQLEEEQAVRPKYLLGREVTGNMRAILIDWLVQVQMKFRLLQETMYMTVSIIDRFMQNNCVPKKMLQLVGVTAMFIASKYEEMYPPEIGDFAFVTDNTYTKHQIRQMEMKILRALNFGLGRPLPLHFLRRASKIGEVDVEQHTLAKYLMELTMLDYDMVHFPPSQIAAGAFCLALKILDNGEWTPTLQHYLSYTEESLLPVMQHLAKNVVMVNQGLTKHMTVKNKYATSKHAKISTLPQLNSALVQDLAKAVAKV

SMILES | IC50 [1] | IC50 ([2]; Homo sapiens, HEK293, 72 h) | IC50 [3] | IC50 [4] | IC50 [5] | IC50 ([2]; read-out: HEK293 IC50)
CC(C)NC(=O)O[C@H]1CC[C@@H](c2cc(Nc3cc4c(cc3F)S(=O)(=O)CC4)n[nH]2)C1 (relative stereo) [Example 1, cis-3-(3-((6-fluoro-1,1-dioxido-2,3-dihydrobenzo[b]thiophen-5-yl)amino)-1H-pyrazol-5-yl)cyclopentyl isopropylcarbamate] | 1.14 µM | > 10 µM | 0.049 µM |  |  | 
CCCNC(=O)O[C@H]1CC[C@@H](c2cc(Nc3ccc4c(c3F)S(=O)(=O)CC4)n[nH]2)C1 (relative stereo) [Example 4, cis-3-(3-((7-fluoro-1,1-dioxido-2,3-dihydrobenzo[b]thiophen-6-yl)amino)-1H-pyrazol-5-yl)cyclopentyl propylcarbamate] | 0.191 µM | 8.59 µM | 0.017 µM |  |  | 
CC1(NC(=O)O[C@H]2CC[C@@H](c3cc(Nc4ccc5c(c4F)S(=O)(=O)CC5)n[nH]3)C2)CC1 (relative stereo) [Example 6, cis-3-(3-((7-fluoro-1,1-dioxido-2,3-dihydrobenzo[b]thiophen-6-yl)amino)-1H-pyrazol-5-yl)cyclopentyl (1-methylcyclopropyl)carbamate] | 0.02 µM | 0.44 µM | 0.0011 µM |  |  | 
CC(C)NC(=O)O[C@H]1CC[C@@H](c2cc(Nc3ccc4c(c3)CS(=O)(=O)C4)n[nH]2)C1 (relative stereo) [Example 7, cis-3-(3-((2,2-dioxido-1,3-dihydrobenzo[c]thiophen-5-yl)amino)-1H-pyrazol-5-yl)cyclopentyl isopropylcarbamate] | 0.012 µM | 0.684 µM | 0.0011 µM |  |  | 
CC1(NC(=O)OC2CCC(c3cc(Nc4ccc5c(c4F)CS(=O)(=O)C5)n[nH]3)C2)CCOC1 (single isomer, unassigned) [Example 13d, cis-3-(3-((4-fluoro-2,2-dioxido-1,3-dihydrobenzo[c]thiophen-5-yl)amino)-1H-pyrazol-5-yl)cyclopentyl (3-methyltetrahydrofuran-3-yl)carbamate] |  |  |  | 0.0009 µM | 0.322 µM | 4.21 µM
CC1(NC(=O)OC2CCC(c3cc(Nc4ccc5c(c4F)CS(=O)(=O)C5)n[nH]3)C2)COC1 (single isomer, unassigned) [Example 15a, cis-3-(3-((4-fluoro-2,2-dioxido-1,3-dihydrobenzo[c]thiophen-5-yl)amino)-1H-pyrazol-5-yl)cyclopentyl (3-methyloxetan-3-yl)carbamate] |  | > 10 µM |  | 0.0019 µM | 1.09 µM | 
CC1(NC(=O)OC2CCC(c3cc(Nc4ccc5c(c4F)CS(=O)(=O)C5)n[nH]3)C2)COC1 (single isomer, unassigned) [Example 15b, cis-3-(3-((4-fluoro-2,2-dioxido-1,3-dihydrobenzo[c]thiophen-5-yl)amino)-1H-pyrazol-5-yl)cyclopentyl (3-methyloxetan-3-yl)carbamate] |  |  |  | 0.002 µM | 0.505 µM | 9.9 µM
CCNC(=O)OC1CCC(c2cc(Nc3ccc4c(c3F)CS(=O)(=O)C4)n[nH]2)C1 (single isomer, unassigned) [Example 18a, cis-3-(3-((4-fluoro-2,2-dioxido-1,3-dihydrobenzo[c]thiophen-5-yl)amino)-1H-pyrazol-5-yl)cyclopentyl ethylcarbamate] |  |  |  | 0.0052 µM | 1.3 µM | > 10 µM
CCNC(=O)OC1CCC(c2cc(Nc3ccc4c(c3F)CS(=O)(=O)C4)n[nH]2)C1 (single isomer, unassigned) [Example 18b, cis-3-(3-((4-fluoro-2,2-dioxido-1,3-dihydrobenzo[c]thiophen-5-yl)amino)-1H-pyrazol-5-yl)cyclopentyl ethylcarbamate] |  |  |  | 0.0052 µM | 0.555 µM | 0.522 µM
O=C(NC1CCOC1)OC1CCC(c2cc(Nc3ccc4c(c3F)CS(=O)(=O)C4)n[nH]2)C1 (single isomer, unassigned) [Example 24a, cis-3-(3-((4-fluoro-2,2-dioxido-1,3-dihydrobenzo[c]thiophen-5-yl)amino)-1H-pyrazol-5-yl)cyclopentyl (tetrahydrofuran-3-yl)carbamate] |  | > 10 µM |  | 0.017 µM | 4.73 µM | 
O=C(NC1CCOC1)OC1CCC(c2cc(Nc3ccc4c(c3F)CS(=O)(=O)C4)n[nH]2)C1 (single isomer, unassigned) [Example 24b, cis-3-(3-((4-fluoro-2,2-dioxido-1,3-dihydrobenzo[c]thiophen-5-yl)amino)-1H-pyrazol-5-yl)cyclopentyl (tetrahydrofuran-3-yl)carbamate] |  |  |  | 0.061 µM | 7.87 µM | > 10 µM
O=C(N[C@H]1CC[C@@H](O)CC1)OC1CCC(c2cc(Nc3ccc4c(c3F)CS(=O)(=O)C4)n[nH]2)C1 (stereo partly drawn) [Example 17, cis-3-(3-((4-fluoro-2,2-dioxido-1,3-dihydrobenzo[c]thiophen-5-yl)amino)-1H-pyrazol-5-yl)cyclopentyl ((1s,4s)-4-hydroxycyclohexyl)carbamate] |  | 0.991 µM |  | 0.0023 µM | 0.824 µM | 
C[C@]1(O)CC[C@@H](NC(=O)OC2CCC(c3cc(Nc4ccc5c(c4F)CS(=O)(=O)C5)n[nH]3)C2)CC1 (stereo partly drawn) [Example 25, cis-3-(3-((4-fluoro-2,2-dioxido-1,3-dihydrobenzo[c]thiophen-5-yl)amino)-1H-pyrazol-5-yl)cyclopentyl ((1s,4s)-4-hydroxy-4-methylcyclohexyl)carbamate] |  | 1.13 µM |  | 0.0018 µM | 0.768 µM | 
O=C(N[C@H]1CC[C@H](O)CC1)OC1CCC(c2cc(Nc3ccc4c(c3F)CS(=O)(=O)C4)n[nH]2)C1 (stereo partly drawn) [Example 26, cis-3-(3-((4-fluoro-2,2-dioxido-1,3-dihydrobenzo[c]thiophen-5-yl)amino)-1H-pyrazol-5-yl)cyclopentyl ((1r,4r)-4-hydroxycyclohexyl)carbamate] |  | 0.998 µM |  | 0.0015 µM | 0.376 µM | 
C[C@]1(O)CC[C@H](NC(=O)OC2CCC(c3cc(Nc4ccc5c(c4F)CS(=O)(=O)C5)n[nH]3)C2)CC1 (stereo partly drawn) [Example 34, cis-3-(3-((4-fluoro-2,2-dioxido-1,3-dihydrobenzo[c]thiophen-5-yl)amino)-1H-pyrazol-5-yl)cyclopentyl ((1r,4r)-4-hydroxy-4-methylcyclohexyl)carbamate] |  | 1.43 µM |  | 0.0011 µM | 1.18 µM | 
